Tests used:
[1] = tested on: T1, SNU387-Ev (SNU387 transduced with empty vector); experiment: cells; set-up: species or system SNU398 and SNU387 isogenic lines; CellTiter-Glo luminescence viability dose response in 384-well plates, nonlinear regression; conditions: Homo sapiens, SNU-387; 72 h cell viability; read-out: EC50 / SNU387-EvLo
T1 construct: empty vector FUW-Luc-mCh-puro
Procedure: (§1) Empty vector, SALL4A, and SALL4B expressing isogenic cell lines were generated by transducing the SALL4 negative hepatocellular carcinoma SNU-387 cells with empty vector, SALL4A, or SALL4B FUW-Luc-mCh-puro lentiviral constructs. Cells were plated in 50 μl of RPMI culture media in 384-well white flat-bottom plates (Corning) and incubated at 37 °C in a humidified atmosphere of 5% CO2 overnight. Cell numbers per well were 1500 for SNU-398, and 750 for SNU-387 and SNU-387 isogenic lines. After overnight incubation, varying concentrations of compounds 1–80 were added to cells with multichannel electronic pipettes (Rainin). Cells were then incubated for 72 h at 37 °C in a humidified atmosphere of 5% CO2 before 10 μl of CellTiter-Glo reagent was added to the wells with the MultiFlo Microplate Dispenser (BioTek). Cells were incubated at room temperature for a minimum of 10 min, after which luminescence readings were recorded by an Infinite M1000 Microplate Reader (Tecan). Each data point was performed in n = 3 independent cell cultures. IC50 of compounds were determined using nonlinear regression fitting from Prism (GraphPad). Cell-based screening was next employed to evaluate the growth inhibitory activity of the test compounds against SALL4 expressing malignant cells. SNU398, a liver cancer cell line with high endogenous levels of SALL4, and SNU387, a liver cancer cell line with undetectable levels of SALL4, were used for comparison. Cells were incubated with the test compound at 1 μM for 72 h, after which cell viability was assessed. […] Next, we carried out dose escalation studies on all SH compounds to deduce their EC50 values on SNU387 and SNU398. In order to interrogate the effects of compounds targeting SALL4, we created isogenic cells by overexpressing SALL4A (SNU387-TgSALL4A) or SALL4B (SNU387-TgSALL4B) in SNU387 cells (Tan et al, [2019]) (Fig. 2B, and Dataset EV4). The EC50 of SH2, SH6, and SH7 in SALL4 high SNU398 cells were 0.4 μM, 0.5 μM, and 0.3 μM, respectively. In contrast, the EC50 values of the same compounds were more than 10 μM on SALL4 low SNU387 cells.

SNU387-TgSALL4A = tested on: T2, SNU387-TgSALL4A; experiment: cells; set-up: species or system SNU398 and SNU387 isogenic lines; CellTiter-Glo luminescence viability dose response in 384-well plates, nonlinear regression; conditions: 72 h cell viability; read-out: EC50 / SNU387-TgSALL4AAHi
T2 construct: SNU387 overexpressing SALL4A (FUW-Luc-mCh-puro)
Procedure: as §1

SNU387-TgSALL4B = tested on: T3, SNU387-TgSALL4B; experiment: cells; set-up: species or system SNU398 and SNU387 isogenic lines; CellTiter-Glo luminescence viability dose response in 384-well plates, nonlinear regression; conditions: 72 h cell viability; read-out: EC50 / SNU387-TgSALL4BBHi
T3 construct: SNU387 overexpressing SALL4B (FUW-Luc-mCh-puro)
Procedure: as §1

SNU387 = experiment: cells; set-up: species or system SNU398 and SNU387 isogenic lines; CellTiter-Glo luminescence viability dose response in 384-well plates, nonlinear regression; conditions: Homo sapiens, SNU-387; 72 h cell viability; read-out: EC50 / SNU387Lo
Procedure: as §1

SNU398 = experiment: cells; set-up: species or system SNU387, SNU398 and SNU387 isogenic lines; CellTiter-Glo luminescence viability dose response in 384-well plates, nonlinear regression; conditions: Homo sapiens, SNU-398; 72 h cell viability; read-out: EC50 / SNU398Hi
Procedure: as §1

CRBN (cereblon) = target: T4, CRBN (cereblon) (Homo sapiens, UniProt Q96SW2); experiment: in-cell CETSA only ([…] SH6); format: cell-based
T4 construct: endogenous CRBN in SNU398 cells

hERG potassium channel = target: T5, hERG potassium channel (Homo sapiens, UniProt Q12809); experiment: hERG channel block concentration-response; format: cell-based
T5 construct: gene KCNH2

CUL4A = target: T6, CUL4A (Homo sapiens, UniProt Q13619); experiment: SPR (Biacore, immobilized CUL4A); supported by in-cell CETSA; format: binding
T6 construct: Recombinant CUL4A (Creative Biomart CUL4A-690H)

SNU387-EvLo = tested on: T7, SNU387-EvLo; experiment: cells; set-up: species or system SNU-387, SNU-398 and SNU-387 isogenic lines; CellTiter-Glo luminescence cell viability, dose-response EC50; conditions: 72 h
T7 construct: SNU-387 empty vector control
Procedure: as §1

SNU387-TgSALL4AAHi = tested on: T8, SNU387-TgSALL4AAHi; experiment: cells; set-up: species or system SNU-387, SNU-398 and SNU-387 isogenic lines; CellTiter-Glo luminescence cell viability, dose-response EC50; conditions: 72 h
T8 construct: SNU-387 overexpressing SALL4A
Procedure: as §1

SNU387-TgSALL4BBHi = tested on: T9, SNU387-TgSALL4BBHi; experiment: cells; set-up: species or system SNU-387, SNU-398 and SNU-387 isogenic lines; CellTiter-Glo luminescence cell viability, dose-response EC50; conditions: 72 h
T9 construct: SNU-387 overexpressing SALL4B
Procedure: as §1

SNU387Lo = tested on: T10, SNU387Lo; experiment: cells; set-up: species or system SNU-387, SNU-398 and SNU-387 isogenic lines; CellTiter-Glo luminescence cell viability, dose-response EC50; conditions: 72 h
T10 construct: SNU-387 hepatocellular carcinoma, SALL4 low
Procedure: as §1

SNU398Hi = tested on: T11, SNU398Hi; experiment: cells; set-up: species or system SNU-387, SNU-398 and SNU-387 isogenic lines; CellTiter-Glo luminescence cell viability, dose-response EC50; conditions: 72 h
T11 construct: SNU-398 hepatocellular carcinoma, SALL4 high
Procedure: as §1

SALL4 ZFC4 = target: T12, SALL4 ZFC4 (human, UniProt Q9UJQ4); experiment: X-ray crystallography (2.1 A); Zn2+; 500 uM protein with 750 uM DNA; Crystallization: protein in 20 mM HEPES pH 7.5, 200 mM NaCl, 0.5 mM TCEP, 1 mM DTT, 10 uM ZnCl2; mixed with equal volume of 30% PEG3350, 0.04 M NH4SO4, BisTris; conditions: protein: recombinant; tags: N-terminal GST, removed with thrombin (pGEX4T1); chain copies: 2; blunt
T12 sequence: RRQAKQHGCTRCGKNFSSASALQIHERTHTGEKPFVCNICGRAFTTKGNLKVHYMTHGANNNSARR

T6 sequence (Q13619 whole entry): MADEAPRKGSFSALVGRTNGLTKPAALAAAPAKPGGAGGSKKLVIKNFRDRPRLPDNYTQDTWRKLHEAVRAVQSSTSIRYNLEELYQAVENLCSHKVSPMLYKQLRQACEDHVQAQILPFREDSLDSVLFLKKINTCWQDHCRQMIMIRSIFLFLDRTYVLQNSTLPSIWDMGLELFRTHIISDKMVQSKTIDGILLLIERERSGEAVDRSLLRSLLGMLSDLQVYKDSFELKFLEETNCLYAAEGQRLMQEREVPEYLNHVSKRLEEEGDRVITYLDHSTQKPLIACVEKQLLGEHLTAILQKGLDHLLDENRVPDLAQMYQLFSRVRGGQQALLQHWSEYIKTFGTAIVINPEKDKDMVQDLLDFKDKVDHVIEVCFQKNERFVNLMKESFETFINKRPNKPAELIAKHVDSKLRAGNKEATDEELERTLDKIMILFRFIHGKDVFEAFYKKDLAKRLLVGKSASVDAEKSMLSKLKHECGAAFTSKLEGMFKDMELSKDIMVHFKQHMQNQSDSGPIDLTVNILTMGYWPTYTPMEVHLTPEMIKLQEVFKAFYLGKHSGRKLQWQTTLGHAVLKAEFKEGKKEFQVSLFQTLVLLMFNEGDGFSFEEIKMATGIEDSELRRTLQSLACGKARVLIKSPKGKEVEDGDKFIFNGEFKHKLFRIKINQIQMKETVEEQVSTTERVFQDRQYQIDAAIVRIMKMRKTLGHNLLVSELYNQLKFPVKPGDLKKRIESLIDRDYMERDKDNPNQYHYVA
T4 sequence (Q96SW2 whole entry): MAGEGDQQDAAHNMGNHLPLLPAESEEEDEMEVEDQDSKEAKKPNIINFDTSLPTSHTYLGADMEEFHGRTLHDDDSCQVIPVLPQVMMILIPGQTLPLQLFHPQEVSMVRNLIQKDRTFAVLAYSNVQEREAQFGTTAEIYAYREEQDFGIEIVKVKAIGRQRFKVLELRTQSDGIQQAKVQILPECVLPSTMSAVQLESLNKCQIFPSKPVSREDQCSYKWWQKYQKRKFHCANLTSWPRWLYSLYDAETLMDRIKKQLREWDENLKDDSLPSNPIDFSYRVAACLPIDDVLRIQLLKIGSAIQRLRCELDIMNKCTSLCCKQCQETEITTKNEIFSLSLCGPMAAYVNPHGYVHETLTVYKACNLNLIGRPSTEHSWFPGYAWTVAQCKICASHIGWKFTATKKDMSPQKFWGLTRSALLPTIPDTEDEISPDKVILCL
T5 sequence (Q12809 whole entry): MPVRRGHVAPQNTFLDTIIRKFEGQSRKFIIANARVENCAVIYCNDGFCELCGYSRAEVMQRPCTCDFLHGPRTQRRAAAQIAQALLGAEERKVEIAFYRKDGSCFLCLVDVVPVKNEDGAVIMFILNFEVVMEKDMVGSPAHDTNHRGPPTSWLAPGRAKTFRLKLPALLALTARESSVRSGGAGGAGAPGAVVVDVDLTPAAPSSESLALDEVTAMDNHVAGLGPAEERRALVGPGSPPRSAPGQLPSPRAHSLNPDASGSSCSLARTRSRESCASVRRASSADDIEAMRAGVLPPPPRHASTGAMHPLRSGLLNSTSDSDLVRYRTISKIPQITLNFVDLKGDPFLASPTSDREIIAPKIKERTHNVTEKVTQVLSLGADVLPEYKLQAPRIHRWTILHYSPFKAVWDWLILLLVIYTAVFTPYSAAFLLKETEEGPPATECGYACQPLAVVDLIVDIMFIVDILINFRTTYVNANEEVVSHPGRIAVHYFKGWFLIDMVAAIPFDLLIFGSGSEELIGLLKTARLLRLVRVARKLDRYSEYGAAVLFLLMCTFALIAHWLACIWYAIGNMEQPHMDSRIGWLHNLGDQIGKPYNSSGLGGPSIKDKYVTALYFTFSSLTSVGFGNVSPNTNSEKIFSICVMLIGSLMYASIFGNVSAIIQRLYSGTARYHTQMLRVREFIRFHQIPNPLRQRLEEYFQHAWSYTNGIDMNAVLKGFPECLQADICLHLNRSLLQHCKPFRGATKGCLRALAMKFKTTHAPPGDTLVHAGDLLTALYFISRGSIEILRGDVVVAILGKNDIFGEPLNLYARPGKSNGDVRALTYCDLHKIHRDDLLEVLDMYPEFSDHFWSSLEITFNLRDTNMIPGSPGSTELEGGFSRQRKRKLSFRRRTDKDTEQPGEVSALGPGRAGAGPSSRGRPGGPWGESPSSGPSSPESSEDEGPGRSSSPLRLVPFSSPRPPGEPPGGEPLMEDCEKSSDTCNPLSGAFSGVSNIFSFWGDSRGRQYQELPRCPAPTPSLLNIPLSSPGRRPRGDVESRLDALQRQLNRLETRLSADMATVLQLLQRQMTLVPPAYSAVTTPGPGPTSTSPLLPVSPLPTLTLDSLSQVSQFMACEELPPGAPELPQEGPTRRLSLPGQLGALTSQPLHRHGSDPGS

COc1ccc(N)c(NC(=O)/C=C/c2cccnc2Nc2cc(OC)c(OC)c(OC)c2)c1 [SH2]
EC50 [1]: > 10 µM | EC50 (SNU387-TgSALL4A): 1.3 µM | EC50 (SNU387-TgSALL4B): 0.4 µM | EC50 (SNU387): > 30 µM | EC50 (SNU398): 0.4 µM

COc1cc(Nc2ncccc2/C=C/C(=O)Nc2ccc(Cl)cc2N)cc(OC)c1OC [SH6, (2E)-N-(2-amino-4-chlorophenyl)-3-[2-(3,4,5-trimethoxyanilino)pyridin-3-yl] prop-2-enamide]
in-cell CETSA only (50 μM SH6) (CRBN (cereblon)): higher thermal stability (less unfolding) of CUL4, CRBN, and SALL4 (Fig. 3F), implicating these proteins as binding partners of SH6 | IC50 (hERG potassium channel): 22.2 µM | Kd (CUL4A): ~89 µM

COc1cc(Nc2ncccc2/C=C/C(=O)Nc2cc(Cl)c(Cl)cc2N)cc(OC)c1OC [SH7]
EC50 [1]: > 10 µM | EC50 (SNU387-TgSALL4A): 1 µM | EC50 (SNU387-TgSALL4B): 0.3 µM | EC50 (SNU387): ~30 µM | EC50 (SNU398): 0.3 µM

Nc1ccc(F)cc1NC(=O)c1cccnc1Nc1ccc(F)cc1 [SH61]
EC50 (SNU387-EvLo): > 10 µM | EC50 (SNU387-TgSALL4AAHi): > 10 µM | EC50 (SNU387-TgSALL4BBHi): > 10 µM | EC50 (SNU387Lo): > 30 µM | EC50 (SNU398Hi): > 30 µM

Cc1cc(N)c(NC(=O)c2cccnc2Nc2ccc(Cl)cc2)cc1C [SH76]
EC50 (SNU387): > 30 µM | EC50 (SNU398): ~30 µM

Nc1ccc(F)cc1NC(=O)c1cccnc1Nc1ccc(Cl)cc1 [SH77]
EC50 (SNU387): > 30 µM | EC50 (SNU398): ~25 µM

Nc1ccc(Cl)cc1NC(=O)c1cccnc1Nc1ccc(Cl)cc1 [SH78]
EC50 (SNU387): > 30 µM | EC50 (SNU398): ~25 µM

Nc1cc(Cl)c(Cl)cc1NC(=O)c1cccnc1Nc1ccc(Cl)cc1 [SH79]
EC50 (SNU387): > 30 µM | EC50 (SNU398): ~20 µM

O=C(NO)c1cccnc1Nc1ccc(Cl)cc1 [SH80]
EC50 (SNU387): > 30 µM | EC50 (SNU398): > 30 µM

B1: 12-mer TATTA SALL4 motif duplex (dsDNA)
DNA 1: CGAAATATTAGC
DNA 2: GCTAATATTTCG
binding result (SALL4 ZFC4): binds

Source: paper PMC12163085, “Targeting transcription factors through an IMiD independent zinc finger domain” (EMBO Molecular Medicine, 2025)
